Test results published in patent publication US7858635B2 (priority 2005, dated 2010).
Where two headings read alike, the source gives them in different places.

How the values were obtained:
M1 muscarinic receptor = target: T1, M1 muscarinic receptor (Homo sapiens, UniProt P11229); experiment: Functional mobilization of intracellular calcium (FLIPR, Fluo-3), M1-CHO cells; type: cell-based; conditions: for Emax / M1 Efficacy: 100% efficacy is the maximum response obtained with the Carbachol control; for Emax: read-out: M1 Efficacy
T1 construct: expressed in transfected cells; host or cells: CHO cells (M1-CHO, under zeocin and G418 selection)
T1 sequence (P11229 1-460): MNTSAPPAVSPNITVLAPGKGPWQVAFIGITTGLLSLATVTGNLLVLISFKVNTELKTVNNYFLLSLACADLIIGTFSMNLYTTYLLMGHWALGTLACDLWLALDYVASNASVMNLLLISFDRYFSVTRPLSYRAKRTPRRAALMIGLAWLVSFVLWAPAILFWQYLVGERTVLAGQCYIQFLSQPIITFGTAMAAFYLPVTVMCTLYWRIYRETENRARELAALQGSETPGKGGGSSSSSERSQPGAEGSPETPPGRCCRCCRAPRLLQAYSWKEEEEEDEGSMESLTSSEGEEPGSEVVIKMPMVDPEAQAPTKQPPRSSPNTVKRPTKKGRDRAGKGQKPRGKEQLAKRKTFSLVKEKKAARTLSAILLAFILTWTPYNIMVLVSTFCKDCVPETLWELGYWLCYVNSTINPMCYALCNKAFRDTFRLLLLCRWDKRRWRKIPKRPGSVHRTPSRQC
Outline: (§1)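 Intracellular calcium was tracked by fluorescence (488/540 nm) over 60 sec after compound addition to dye-loaded CHO cells expressing the receptor. Inhibitory activity used a 15 min pre-incubation before carbachol at the subtype EC80.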

M4 muscarinic receptor = target: T2, M4 muscarinic receptor (Homo sapiens, UniProt P08173); experiment: Functional mobilization of intracellular calcium (FLIPR, Fluo-3), M4-CHO cells; type: cell-based; conditions: for Emax / M4 Efficacy: 100% efficacy is the maximum response obtained with the Carbachol control; for Emax: read-out: M4 Efficacy
T2 construct: expressed in transfected cells; host or cells: CHO cells (M4-CHO, under puromycin, zeocin and blasticidin selection)
T2 sequence (P08173 1-479): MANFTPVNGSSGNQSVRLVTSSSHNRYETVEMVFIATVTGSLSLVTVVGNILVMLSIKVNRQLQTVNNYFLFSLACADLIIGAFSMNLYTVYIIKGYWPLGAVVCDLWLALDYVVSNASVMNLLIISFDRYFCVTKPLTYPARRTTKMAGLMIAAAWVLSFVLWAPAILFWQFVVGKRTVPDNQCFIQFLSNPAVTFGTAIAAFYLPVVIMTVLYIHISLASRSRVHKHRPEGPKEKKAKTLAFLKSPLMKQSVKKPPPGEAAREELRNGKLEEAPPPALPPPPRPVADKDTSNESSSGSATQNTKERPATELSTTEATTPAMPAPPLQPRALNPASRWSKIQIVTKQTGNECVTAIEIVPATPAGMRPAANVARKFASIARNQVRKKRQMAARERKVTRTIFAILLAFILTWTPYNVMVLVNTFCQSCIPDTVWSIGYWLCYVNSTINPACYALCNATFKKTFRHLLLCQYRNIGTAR
Outline: as §1

[1] = compound nos. 1-454, M1-CHO cells, calcium mobilization
[2] = compound nos. 1-454, M4-CHO cells, calcium mobilization

Compound | Emax (M1 muscarinic receptor; compound nos. 1-454) [%] | M1 Activity (M1 muscarinic receptor; [1]) | Emax (M4 muscarinic receptor; compound nos. 1-454) [%] | M4 Activity (M4 muscarinic receptor; [2]) | other results
Cc1ncc(N2CCC(N3CCC4(CC3)CN(C(=O)N(C)C)c3ccc(F)cc34)CC2)nc1C [compound 472] |  |  |  |  | Emax (M1 muscarinic receptor; compound nos. 455-509): > 100%; M1 Activity (M1 muscarinic receptor; compounds 455-509): +++ (activity was measured to be less than or equal to 2.0 μM); Emax (M4 muscarinic receptor; compound nos. 455-509): 25 to 100%; M4 Activity (M4 muscarinic receptor; compounds 455-509): ++ (activity was measured to be between 2.0 μM and 5.0 μM)
C=Cc1ccc2c(c1)C1(CCN(C3CCN(C(=O)OCC)CC3)CC1)CN2C(C)=O [compound 11] | < 65 | + (activity was measured to be greater than or equal to 3.0 μM) | < 55 | + (activity was measured to be greater than or equal to 4.0 μM) | 
Cc1ccc2c(c1)C1(CCN(C3CC4CCC3C4)CC1)CN2C(=O)c1cc(C)on1 (centres unmarked) [compound 208] | < 65 | ++ (activity was measured to be between 0.7 μM and 3.0 μM) | < 55 | + (activity was measured to be greater than or equal to 4.0 μM) | 
CC(C)OC(=O)N1C2CCC1CC(N1CCC3(CC1)CN(C(=O)O[C@@H]1CCOC1)c1ccc(F)cc13)C2 (some centres unmarked) [compound 402] |  |  |  |  | M1 Activity (M1 muscarinic receptor; compound nos. 1-454): ++ (activity was measured to be between 0.7 μM and 3.0 μM); M1 Efficacy (M1 muscarinic receptor; compound nos. 1-454): ++ (efficacy was calculated to be between 85% and 65%); M4 Activity (M4 muscarinic receptor; compound nos. 1-454): + (activity was measured to be greater than or equal to 4.0 μM); M4 Efficacy (M4 muscarinic receptor; compound nos. 1-454): + (efficacy was calculated to be 55% or less)
CCOC(=O)N1C2CCC1CC(N1CCC3(CC1)CC(NC(C)=O)c1ccccc13)C2 (centres unmarked) [compound 318] | 65 to 85 | +++ (activity was measured to be less than or equal to 0.7 μM) | > 70 | +++ (activity was measured to be less than or equal to 0.1 μM) | 
CCOC(=O)N1C2CCC1CC(N1CCC3(CC1)CN(C(=O)c1cc(C)nn1C(C)(C)C)c1ccc(F)cc13)C2 (centres unmarked) [compound 189] | 65 to 85 | +++ (activity was measured to be less than or equal to 0.7 μM) | 55 to 70 | + (activity was measured to be greater than or equal to 4.0 μM) | 
CCC1CCC(N2CCC3(CC2)CN(C(C)=O)c2ccc(F)cc23)CC1 (centres unmarked) [compound 27] | 65 to 85 | +++ (activity was measured to be less than or equal to 0.7 μM) | 55 to 70 | +++ (activity was measured to be less than or equal to 0.1 μM) | 
CCOC(=O)N1CCC(N2CCC3(CC2)CN(C(C)=O)c2ccc(-c4cccc(F)c4)cc23)CC1 [compound 84] | 65 to 85 | +++ (activity was measured to be less than or equal to 0.7 μM) | 55 to 70 | ++ (activity was measured to be between 0.1 μM and 4.0 μM) | 
CN(C)C(=O)N1CC2(CCN(C3CCN(c4cnccn4)CC3)CC2)c2cc(F)ccc21 [compound 444] | 65 to 85 |  | 55 to 70 |  | M1 Activity (M1 muscarinic receptor; compound nos. 1-454): +++ (activity was measured to be less than or equal to 0.7 μM); M4 Activity (M4 muscarinic receptor; compound nos. 1-454): +++ (activity was measured to be less than or equal to 0.1 μM)
COCCOC(=O)N1C2CCC1CC(N1CCC3(CCc4ccccc43)CC1)C2 (centres unmarked) [compound 95] | 65 to 85 | +++ (activity was measured to be less than or equal to 0.7 μM) | < 55 | ++ (activity was measured to be between 0.1 μM and 4.0 μM) | 
CC(=O)NC1CC2(CCN(CC3CC4C=CC3C4)CC2)c2ccccc21 (centres unmarked) [compound 305] |  | + (activity was measured to be greater than or equal to 3.0 μM) |  | + (activity was measured to be greater than or equal to 4.0 μM) | M1 Efficacy (M1 muscarinic receptor; compound nos. 1-454): + (efficacy was calculated to be 65% or less); M4 Efficacy (M4 muscarinic receptor; compound nos. 1-454): + (efficacy was calculated to be 55% or less)
CCOC(=O)N1CCC(N2CCC3(CC2)CN(C(=O)c2cccnc2)c2ccc(F)cc23)CC1 [compound 144] | > 85 | +++ (activity was measured to be less than or equal to 0.7 μM) | > 70 | +++ (activity was measured to be less than or equal to 0.1 μM) | 
O=C(OC1CCCC1)N1C2CCC1CC(N1CCC3(CCc4ccccc43)CC1)C2 (centres unmarked) [compound 258] | 65 to 85 | + (activity was measured to be greater than or equal to 3.0 μM) | < 55 | + (activity was measured to be greater than or equal to 4.0 μM) | 
CCCOC(=O)N1CCC(CN2CCC3(CC2)C[C@H](NC(C)=O)c2ccccc23)CC1 [compound 36] | 65 to 85 | +++ (activity was measured to be less than or equal to 0.7 μM) | > 70 | ++ (activity was measured to be between 0.1 μM and 4.0 μM) | 
CCOC(=O)N1C2CCC1CC(N1CCC3(CC1)COc1ccc(Cl)cc13)C2 (centres unmarked) [compound 99] | < 65 | +++ (activity was measured to be less than or equal to 0.7 μM) | < 55 | + (activity was measured to be greater than or equal to 4.0 μM) | 
COCCOC(=O)N1CC2(CCN(C3CC4CCC(C3)N4C(=O)OC(C)C)CC2)c2cc(F)ccc21 (centres unmarked) [compound 422] | < 65 |  | < 55 |  | M1 Activity (M1 muscarinic receptor; compound nos. 1-454): +++ (activity was measured to be less than or equal to 0.7 μM); M4 Activity (M4 muscarinic receptor; compound nos. 1-454): + (activity was measured to be greater than or equal to 4.0 μM)
CCOC(=O)N1CCC(N2CCC3(CC2)CN(C(C)=O)c2ccc(-c4ccc(C#N)cc4)cc23)CC1 [compound 253] | 65 to 85 | ++ (activity was measured to be between 0.7 μM and 3.0 μM) | 55 to 70 | + (activity was measured to be greater than or equal to 4.0 μM) | 
CCOC(=O)N1CCC(N2CCC3(CC2)CN(CC(=O)CC)c2ccc(F)cc23)CC1 [compound 303] | > 85 | ++ (activity was measured to be between 0.7 μM and 3.0 μM) | < 55 | + (activity was measured to be greater than or equal to 4.0 μM) | 
CCOC(=O)N1CCC(N2CCC3(CC2)CNc2ccc(Cl)cc23)CC1 [compound 19] | 65 to 85 | +++ (activity was measured to be less than or equal to 0.7 μM) | 55 to 70 | ++ (activity was measured to be between 0.1 μM and 4.0 μM) | 
O=C1CC2(CCN(C3CCCCCC3)CC2)c2ccccc2N1 [compound 242] | 65 to 85 | +++ (activity was measured to be less than or equal to 0.7 μM) | > 70 | ++ (activity was measured to be between 0.1 μM and 4.0 μM) | 
CC(=O)N1CC2(CCN(C3CC[C@@H]4CC[C@@H]3C4)CC2)c2cc(F)ccc21 (some centres unmarked) [compound 251] | 65 to 85 | ++ (activity was measured to be between 0.7 μM and 3.0 μM) | 55 to 70 | + (activity was measured to be greater than or equal to 4.0 μM) | 
CN(C)C(=O)N1CC2(CCN(C3(C)CCN(c4cnccn4)CC3)CC2)c2ccccc21 [compound 465] |  |  |  |  | Emax (M1 muscarinic receptor; compound nos. 455-509): > 100%; M1 Activity (M1 muscarinic receptor; compounds 455-509): ++ (activity was measured to be between 2.0 μM and 5.0 μM); Emax (M4 muscarinic receptor; compound nos. 455-509): 25 to 100%; M4 Activity (M4 muscarinic receptor; compounds 455-509): ++ (activity was measured to be between 2.0 μM and 5.0 μM)
CC(=O)NC1CC2(CCN(C[C@H]3C[C@H]4C=C[C@H]3C4)CC2)c2ccccc21 (some centres unmarked) [compound 213] | 65 to 85 | ++ (activity was measured to be between 0.7 μM and 3.0 μM) | < 55 | + (activity was measured to be greater than or equal to 4.0 μM) | 
